According to the supplement of paper PMC11208160:

Assay: recombinant UMI read abundance after kanamycin selection (control-corrected) (log10(CPM+1)); higher = more efficient recombination; extreme values may be limits of the assay; sequences stand for … in AGTGCAGAGAAAATCGGCCAGTTTTCTCTGCCTGCAGTCCGCATGCCGTGGGACCCCTTGGGTTCTAACCTGTTGCCTAGATTTATGCAGCGGACTGCCTTTCTCCCAAAGTGATAAACCGG…AGGTTGGTTTCACT; site = the 11-nt donor
Summary of the method: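 Two replicates each of selected and unselected plating were used in this pooled Escherichia coli screen of donor and donor-binding-loop pairs for the IS621 bridge recombinase. Selection was with IPTG (0.07 mM) and kanamycin. Counts of recombinant UMIs, amplified across the donor–target junction, were converted to CPM, averaged, scaled by control-derived factors and reported as log10(CPM+1).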
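Note: IS621 bridge recombinase in Escherichia coli cells against a fixed T5 target plasmid.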

| Sequence | recombinant UMI read abundance (log10) |
| --- | --- |
| GAGGCAACATGGACCGGTTTTCCCGGTAATCCGTATTTGCT (site GAGGCAACTAG) | 1.66 |
| GAGGGTTCATGGACCGGTTTTCCCGGTAATCCGTATTTGCG (site GAGGGTTCTCG) | 2.63 |
| GAGGTTCCATGGACCGGTTTTCCCGGTAATCCGTATTTGGC (site GAGGTTCCTGC) | 0 |
| GAGTAATCATGGACCGGTTTTCCCGGTAATCCGTATTTGGG (site GAGTAATCTCC) | 1.57 |
| GAGTAGGCATGGACCGGTTTTCCCGGTAATCCGTATTTGAT (site GAGTAGGCTAT) | 1.96 |
| GAGTAGGCATGGACCGGTTTTCCCGGTAATCCGTATTTGGG (site GAGTAGGCTCC) | 0.566 |
| GAGTCATCATGGACCGGTTTTCCCGGTAATCCGTATTTGGT (site GAGTCATCTAC) | 1.02 |
| GAGTCCCCATGGACCGGTTTTCCCGGTAATCCGTATTTGTC (site GAGTCCCCTGA) | 0.99 |
| GAGTGATCATGGACCGGTTTTCCCGGTAATCCGTATTTGCT (site GAGTGATCTAG) | 2.62 |
| GAGTTCGCATGGACCGGTTTTCCCGGTAATCCGTATTTGGA (site GAGTTCGCTTC) | 1.08 |
| GATAAATCATGGACCGGTTTTCCCGGTAATCCGTATTTGAC (site GATAAATCTGT) | 1.03 |
| GATAAGTCATGGACCGGTTTTCCCGGTAATCCGTATTTGCC (site GATAAGTCTGG) | 2.1 |
| GATACGACATGGACCGGTTTTCCCGGTAATCCGTATTTGTT (site GATACGACTAA) | 0.259 |
| GATACTGCATGGACCGGTTTTCCCGGTAATCCGTATTTGCA (site GATACTGCTTG) | 1.61 |
| GATACTGCATGGACCGGTTTTCCCGGTAATCCGTATTTGTC (site GATACTGCTGA) | 1.28 |
| GATAGGTCATGGACCGGTTTTCCCGGTAATCCGTATTTGGA (site GATAGGTCTTC) | 1.15 |
| GATATAGCATGGACCGGTTTTCCCGGTAATCCGTATTTGGT (site GATATAGCTAC) | 1.08 |
| GATATATCATGGACCGGTTTTCCCGGTAATCCGTATTTGCG (site GATATATCTCG) | 1.42 |
| GATCAAACATGGACCGGTTTTCCCGGTAATCCGTATTTGAA (site GATCAAACTTT) | 0 |
| GATCCCTCATGGACCGGTTTTCCCGGTAATCCGTATTTGGC (site GATCCCTCTGC) | 0.839 |
| GATCCGTCATGGACCGGTTTTCCCGGTAATCCGTATTTGCG (site GATCCGTCTCG) | 0.274 |
| GATCCTACATGGACCGGTTTTCCCGGTAATCCGTATTTGCT (site GATCCTACTAG) | 0.00962 |
| GATCCTTCATGGACCGGTTTTCCCGGTAATCCGTATTTGTC (site GATCCTTCTGA) | 0.252 |

| Sequence | recombinant UMI read abundance (log10) |
| --- | --- |
| GATCTCTCATGGACCGGTTTTCCCGGTAATCCGTATTTGAT (site GATCTCTCTAT) | 0.578 |
| GATGACACATGGACCGGTTTTCCCGGTAATCCGTATTTGTC (site GATGACACTGA) | 1.18 |
| GATGACTCATGGACCGGTTTTCCCGGTAATCCGTATTTGGT (site GATGACTCTAC) | 2.49 |
| GATGCAGCATGGACCGGTTTTCCCGGTAATCCGTATTTGTA (site GATGCAGCTTA) | 1.62 |
| GATGCAGCATGGACCGGTTTTCCCGGTAATCCGTATTTGTT (site GATGCAGCTAA) | 0.749 |
| GATGTACCATGGACCGGTTTTCCCGGTAATCCGTATTTGGC (site GATGTACCTGC) | 0.247 |
| GATTACTCATGGACCGGTTTTCCCGGTAATCCGTATTTGTC (site GATTACTCTGA) | 1.09 |
| GATTATCCATGGACCGGTTTTCCCGGTAATCCGTATTTGCC (site GATTATCCTAG) | 0 |
| GATTATCCATGGACCGGTTTTCCCGGTAATCCGTATTTGCC (site GATTATCCTCG) | 0 |
| GATTATCCATGGACCGGTTTTCCCGGTAATCCGTATTTGCC (site GATTATCCTGG) | 0 |
| GATTATCCATGGACCGGTTTTCCCGGTAATCCGTATTTGCC (site GATTATCCTTG) | 0 |
| GATTCATCATGGACCGGTTTTCCCGGTAATCCGTATTTGCG (site GATTCATCTCG) | 1.2 |
| GATTCGGCATGGACCGGTTTTCCCGGTAATCCGTATTTGAC (site GATTCGGCTGT) | 0.484 |
| GATTGCGCATGGACCGGTTTTCCCGGTAATCCGTATTTGCG (site GATTGCGCTCG) | 0.805 |
| GATTGGACATGGACCGGTTTTCCCGGTAATCCGTATTTGAT (site GATTGGACTAT) | 0.838 |
| GATTGGACATGGACCGGTTTTCCCGGTAATCCGTATTTGAT (site GATTGGACTCT) | 0.0264 |
| GATTGGACATGGACCGGTTTTCCCGGTAATCCGTATTTGAT (site GATTGGACTGT) | 0 |
| GATTGGACATGGACCGGTTTTCCCGGTAATCCGTATTTGAT (site GATTGGACTTT) | 0.0212 |
| GATTGGACATGGACCGGTTTTCCCGGTAATCCGTATTTGCC (site GATTGGACTGA) | 0 |
| GATTGGACATGGACCGGTTTTCCCGGTAATCCGTATTTGCC (site GATTGGACTGC) | 0 |
| GATTGGACATGGACCGGTTTTCCCGGTAATCCGTATTTGCC (site GATTGGACTGG) | 2.68 |
| GATTGGACATGGACCGGTTTTCCCGGTAATCCGTATTTGCC (site GATTGGACTGT) | 0 |
| GATTGGACATGGACCGGTTTTCCCGGTAATCCGTATTTGTC (site GATTGGACTGA) | 0.657 |

| Sequence | recombinant UMI read abundance (log10) |
| --- | --- |
| GATTGGACATGGACCGGTTTTCCCGGTAATCCGTATTTGTC (site GATTGGACTGC) | 0 |
| GATTGGACATGGACCGGTTTTCCCGGTAATCCGTATTTGTC (site GATTGGACTGG) | 0.913 |
| GATTGGACATGGACCGGTTTTCCCGGTAATCCGTATTTGTC (site GATTGGACTGT) | 0.172 |
| GATTTATCATGGACCGGTTTTCCCGGTAATCCGTATTTGTC (site GATTTATCTGA) | 0.525 |
| GATTTCGCATGGACCGGTTTTCCCGGTAATCCGTATTTGGG (site GATTTCGCTCC) | 0.00434 |
| GCAAACGCATGGACCGGTTTTCCCGGTAATCCGTATTTGTG (site GCAAACGCTCA) | 1.98 |
| GCAACTACATGGACCGGTTTTCCCGGTAATCCGTATTTGTG (site GCAACTACTCA) | 1.17 |
| GCAAGTGCATGGACCGGTTTTCCCGGTAATCCGTATTTGTC (site GCAAGTGCTGA) | 0 |
| GCAATATCATGGACCGGTTTTCCCGGTAATCCGTATTTGCA (site ACAGTATCTTG) | 1.37 |
| GCAATATCATGGACCGGTTTTCCCGGTAATCCGTATTTGCA (site GCAATATCTTG) | 1.75 |
| GCAATTCCATGGACCGGTTTTCCCGGTAATCCGTATTTGAG (site GCAATTCCTCT) | 0.651 |
| GCAATTGCATGGACCGGTTTTCCCGGTAATCCGTATTTGCC (site GCAATTGCTGG) | 0 |
| GCAATTTCATGGACCGGTTTTCCCGGTAATCCGTATTTGTA (site GCAATTTCTTA) | 2.26 |
| GCACATGCATGGACCGGTTTTCCCGGTAATCCGTATTTGGA (site GCACATGCTTC) | 1.05 |
| GCACCTTCATGGACCGGTTTTCCCGGTAATCCGTATTTGTT (site GCACCTTCTAA) | 1.09 |
| GCACGATCATGGACCGGTTTTCCCGGTAATCCGTATTTGTA (site GCACGATCTTA) | 2.74 |
| GCACTGCCATGGACCGGTTTTCCCGGTAATCCGTATTTGCT (site GCACTGCCTAG) | 1.41 |
| GCACTTCCATGGACCGGTTTTCCCGGTAATCCGTATTTGTT (site GCACTTCCTAA) | 0.561 |
| GCAGAAACATGGACCGGTTTTCCCGGTAATCCGTATTTGGC (site GCAGAAACTGC) | 2.87 |
| GCAGTAGCATGGACCGGTTTTCCCGGTAATCCGTATTTGCC (site GCAGTAGCTGG) | 0.831 |
| GCAGTGGCATGGACCGGTTTTCCCGGTAATCCGTATTTGGT (site GAAGTGGCTAC) | 0.0767 |
| GCAGTGGCATGGACCGGTTTTCCCGGTAATCCGTATTTGGT (site GCAGTGGCTAC) | 0.668 |
